Assay results reported in US20250032623A1, “HETEROBIFUNCTIONAL COMPOUNDS AND THEIR USE IN TREATING DISEASE” (HALDA THERAPEUTICS OPCO, INC., priority 2021, published 2025).

Key:
[1] = biological target: T1, EGFR WT (amino acids 669-1011, Accession Number NP_005219.2) (Homo sapiens, UniProt P00533); assay: KdELECT binding assay (Eurofins Discovery), EGFR WT
T1 construct: purchased Eurofins Discovery; host or cells: bacteria (E. coli, BL21-derived, T7 phage)
Description: (§1) Exemplary compounds were tested for ability to bind to EGFR WT (amino acids 669-1011, Accession Number NP_005219.2) or EGFR T790M, L858R (amino acids 669-1011 Accession Number NP_005219.2) expressed from bacteria or mammalian cells, respectively. Compounds were tested using the KdELECT assay at Eurofins Discovery.
(§2) Kinase-tagged T7 phage strains were prepared in an E. coli host derived from the BL21 strain. E. coli were grown to log-phase and infected with T7 phage and incubated with shaking at 32° C. until lysis. The lysates were centrifuged and filtered to remove cell debris. The remaining kinases were produced in HEK-293 cells and subsequently tagged with DNA for qPCR detection. Streptavidin-coated magnetic beads were treated with biotinylated small molecule ligands for 30 minutes at room temperature to generate affinity resins for kinase assays. The liganded beads were blocked with excess biotin and washed with blocking buffer (SeaBlock (Pierce), 1% BSA, 0.05% Tween 20, 1 mM DTT) to remove unbound ligand and to reduce non-specific binding. Binding reactions were assembled by combining kinases, liganded affinity beads, and test compounds in 1× binding buffer (20% SeaBlock, 0.17×PBS, 0.05% Tween 20, 6 mM DTT). Test compounds were prepared as 111× stocks in 100% DMSO. Kd values were determined using an 11-point 3-fold compound dilution series with three DMSO control points. All compounds for Kd measurements are distributed by acoustic transfer (non-contact dispensing) in 100% DMSO. The compounds were then diluted directly into the assays such that the final concentration of DMSO was 0.9%. All reactions performed in polypropylene 384-well plate. Each was a final volume of 0.02 mL. The assay plates were incubated at room temperature with shaking for 1 hour and the affinity beads were washed with wash buffer (1× PBS, 0.05% Tween 20). The beads were then re-suspended in elution buffer (1× PBS, 0.05% Tween 20, 0.5 μM nonbiotinylated affinity ligand) and incubated at room temperature with shaking for 30 minutes. The kinase concentration in the eluates was measured by qPCR.

[2] = biological target: T2, EGFR T790M, L858R (amino acids 669-1011 Accession Number NP_005219.2) (Homo sapiens, UniProt P00533, L858R/T790M); assay: KdELECT binding assay (Eurofins Discovery), EGFR T790M, L858R; settings: read-out: EGFR DM Kd
T2 construct: purchased Eurofins Discovery; host or cells: mammalian cells (HEK-293)
T2 sequence (P00533 669-1011 T790M/L858R): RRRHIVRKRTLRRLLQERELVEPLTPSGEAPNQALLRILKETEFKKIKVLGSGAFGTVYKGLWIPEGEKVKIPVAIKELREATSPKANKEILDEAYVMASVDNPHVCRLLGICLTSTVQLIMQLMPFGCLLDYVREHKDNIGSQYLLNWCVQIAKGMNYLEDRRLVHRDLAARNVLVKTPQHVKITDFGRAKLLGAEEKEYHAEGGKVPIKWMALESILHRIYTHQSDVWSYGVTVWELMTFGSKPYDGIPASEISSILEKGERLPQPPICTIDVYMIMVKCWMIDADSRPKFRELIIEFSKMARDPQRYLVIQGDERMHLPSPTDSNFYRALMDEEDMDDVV
Description: as §1, §2

EGFR = biological target: T3, EGFR (Homo sapiens, UniProt P00533); assay: KdELECT binding assay, EGFR
T3 construct: purchased
T3 sequence (P00533 25-1210): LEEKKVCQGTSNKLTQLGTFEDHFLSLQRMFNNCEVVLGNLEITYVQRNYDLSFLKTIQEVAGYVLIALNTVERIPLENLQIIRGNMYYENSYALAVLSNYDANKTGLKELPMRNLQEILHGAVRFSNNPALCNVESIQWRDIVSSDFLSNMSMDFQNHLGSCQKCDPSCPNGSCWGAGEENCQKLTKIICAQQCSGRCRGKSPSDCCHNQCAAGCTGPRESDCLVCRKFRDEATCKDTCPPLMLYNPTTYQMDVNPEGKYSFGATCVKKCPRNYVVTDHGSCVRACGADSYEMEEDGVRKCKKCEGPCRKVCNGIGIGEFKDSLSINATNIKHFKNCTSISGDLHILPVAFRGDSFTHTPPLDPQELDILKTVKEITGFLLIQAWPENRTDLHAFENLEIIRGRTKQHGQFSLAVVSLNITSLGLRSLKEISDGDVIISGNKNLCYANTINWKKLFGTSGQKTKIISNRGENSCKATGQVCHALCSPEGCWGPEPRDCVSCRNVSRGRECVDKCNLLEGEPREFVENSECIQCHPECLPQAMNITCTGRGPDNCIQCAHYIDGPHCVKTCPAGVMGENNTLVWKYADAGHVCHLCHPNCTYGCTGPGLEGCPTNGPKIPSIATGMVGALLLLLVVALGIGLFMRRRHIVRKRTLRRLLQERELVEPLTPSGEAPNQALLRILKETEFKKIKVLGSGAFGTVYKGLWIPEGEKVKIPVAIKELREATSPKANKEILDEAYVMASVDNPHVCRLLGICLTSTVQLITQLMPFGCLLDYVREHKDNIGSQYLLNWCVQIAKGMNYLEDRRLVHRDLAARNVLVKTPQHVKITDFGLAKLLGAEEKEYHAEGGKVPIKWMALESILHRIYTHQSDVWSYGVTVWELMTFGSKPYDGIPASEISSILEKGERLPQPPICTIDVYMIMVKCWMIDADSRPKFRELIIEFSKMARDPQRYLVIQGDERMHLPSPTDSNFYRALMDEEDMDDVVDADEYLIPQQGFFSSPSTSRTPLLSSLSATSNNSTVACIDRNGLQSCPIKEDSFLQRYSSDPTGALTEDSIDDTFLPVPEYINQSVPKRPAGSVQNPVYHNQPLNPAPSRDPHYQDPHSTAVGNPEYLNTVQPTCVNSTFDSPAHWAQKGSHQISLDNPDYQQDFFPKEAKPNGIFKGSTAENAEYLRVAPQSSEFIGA
Description: Exemplary compounds were tested for ability to bind to EGFR.
as §2, with “Compounds were tested using a KdELECT assay. Kinase-tagged” for “Kinase-tagged”

HEK293 cells = assay: Cellular growth inhibition assay (CellTiter-Glo), HEK293 cells; assay type: cell-based; settings: Homo sapiens, 72 h, three days compound treatment, CellTiter-Glo 2.0, read-out: CTG HEK293 GI50
Description: (§3) Exemplary compounds were tested for ability to inhibit the proliferation of HEK293 cells or HeLa cells.
(§4) HEK293 and HeLa cells were cultured in DMEM medium supplemented with 10% fetal bovine serum and 1% Penn/Strep. Cells were seeded in white 384-well plates at 500 cells/well in […] complete medium. Following seeding, plates were spun at 300×g for three minutes and cultured at 37° C. with 5% CO2 in a humidified tissue culture incubator.
(§5) After 24 hours, compounds were titrated in 100% DMSO and diluted in complete cell culture medium. […] of compound/media mixture was added to cells to bring total volume in well to […]. DMSO alone was used as a negative control. P lates were then spun at 300×g for three minutes and stored at 37° C. with 5% CO2 for three days.
(§6) On Day 0 and Day 3 of compound treatment, cell viability was quantified with CellTiter-Glo 2.0 reagent (Promega). After equilibrating microplates at room temperature for 30 minutes, 25 μL CellTiter-Glo 2.0 reagent was dispensed into each well to bring total volume to […]. Plates were mixed on shaker for 2 minutes at 500 rpm, followed by a 10-minute incubation at room temperature. Following a quick spin, luminescence readings were measured with an EnVision Plate Reader. Data was normalized to DMSO treated Day 0 and Day 3 readings. A four-parameter non-linear regression curve fit was applied to dose-response data in GraphPad Prism data analysis software to determine the half maximal growth inhibitory concentration (GI50) for each compound.

HeLa cells = assay: Cellular growth inhibition assay (CellTiter-Glo), HeLa cells; assay type: cell-based; settings: Homo sapiens, 72 h, three days compound treatment, CellTiter-Glo 2.0, read-out: CTG HELA GI50
Description: as §3, §4, §5, §6

T1 sequence (P00533 669-1011): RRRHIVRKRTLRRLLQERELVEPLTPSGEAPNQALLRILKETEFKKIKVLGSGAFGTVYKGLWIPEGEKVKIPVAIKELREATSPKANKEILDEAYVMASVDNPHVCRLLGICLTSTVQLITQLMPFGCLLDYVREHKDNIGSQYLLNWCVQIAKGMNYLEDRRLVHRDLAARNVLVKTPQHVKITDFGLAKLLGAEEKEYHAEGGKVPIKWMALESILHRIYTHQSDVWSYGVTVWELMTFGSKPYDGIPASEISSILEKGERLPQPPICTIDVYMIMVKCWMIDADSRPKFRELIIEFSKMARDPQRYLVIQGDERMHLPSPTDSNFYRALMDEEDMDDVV

SMILES	Kd [1] [nM]	Kd [2] [nM]	Kd (EGFR) [nM]	GI50 (HEK293 cells) [nM]	GI50 (HeLa cells) [nM]
C=CC(=O)Nc1cc(Nc2nccc(-c3cn(C)c4ccccc34)n2)c(OC)cc1N(C)CCN(C)CCCCNS(=O)(=O)c1ccc(Nc2ncc(Br)c(Nc3cccc(F)c3C(N)=O)n2)cc1 [Compound I-29, 2-[[5-bromo-2-[4-[4-[2-[5-methoxy-N-methyl-4-[[4-(1-methylindol-3-yl)pyrimidin-2-yl]amino]-2-(prop-2-enoylamino)anilino]ethyl-methyl-amino]butylsulfamoyl]anilino]pyrimidin-4-yl]amino]-6-fluoro-benzamide]	50 to 500	< 50			
C=CC(=O)Nc1cc(Nc2nccc(-c3cn(C)c4ccccc34)n2)c(OC)cc1N(C)CCN(C)CCOCCOCCOCCOCCNS(=O)(=O)c1ccc(Nc2ncc(Br)c(Nc3cccc(F)c3C(N)=O)n2)cc1 [Compound I-32, 2-[[5-bromo-2-[4-[2-[2-[2-[2-[2-[2-[5-methoxy-N-methyl-4-[[4-(1-methylindol-3-yl)pyrimidin-2-yl]amino]-2-(prop-2-enoylamino)anilino]ethyl-methyl-amino]ethoxy]-ethoxy]ethoxy]ethoxy]ethylsulfamoyl]anilino]pyrimidin-4-yl]amino]-6-fluoro-benzamide]	50 to 500	< 50			
C=CC(=O)N[C@@H]1CN(c2nc(Nc3cn(CCOCCOCCOCCOCCON(C)C(=O)N4N=C(c5cc(F)ccc5F)SC4(CCCN)c4ccccc4)nc3OC)c3ncn(C)c3n2)C[C@H]1F (some centres unmarked) [Compound I-66]			< 50		
C=CC(=O)Nc1cc(Nc2nccc(-c3cn(C)c4ccccc34)n2)c(OC)cc1N(C)CCN(C)CCOCCOCCOCCOCCOCCOCCON(C)C(=O)N1N=C(c2cc(F)ccc2F)SC1(CCCN)c1ccccc1 (centres unmarked) [Compound I-68]	500 to 2500	< 50			
C=CC(=O)Nc1cc(Nc2nccc(-c3cn(C)c4ccccc34)n2)c(OC)cc1N(C)CCN(C)CCOCCOCCOCCOCCNC(=O)c1ccc(Nc2ncc3c(n2)N(C2CCCC2)[C@H](CC)C(=O)N3C)c(OC)c1 [Compound I-112, 4-[[(7R)-8-cyclopentyl-7-ethyl-5-methyl-6-oxo-7H-pteridin-2-yl]amino]-3-methoxy-N-[2-[2-[2-1[2-[2-1[2-1[5-methoxy-N-methyl-4-1[[4-(1-methylindol-3-yl)pyrimidin-2-yl]amino]-2-(prop-2-enoylamino)anilino]ethyl-methyl-amino]ethoxy]ethoxy]ethoxy]ethoxy]ethyl]benzamide]	500 to 2500		500 to 2500		
C=CC(=O)Nc1cc(Nc2nccc(-c3cn(C)c4ccccc34)n2)c(OC)cc1N(C)CCN(C)CCOCCOCCOCCOCCOCCOCCNC(=O)c1ccc(Nc2ncc3c(n2)N(C2CCCC2)[C@H](CC)C(=O)N3C)c(OC)c1 [Compound I-113, (R)—N-(2-(2-acrylamido-5-methoxy-4-((4-(1-methyl-1H-indol-3-yl)pyrimidin-2-yl)amino)phenyl)-5-methyl-8,11,14,17,20,23-hexaoxa-2,5-diazapentacosan-25-yl)-4-((8-cyclopentyl-7-ethyl-5-methyl-6-oxo-5,6,7,8-tetrahydropteridin-2-yl)amino)-3-methoxybenzamide]	500 to 2500		500 to 2500	1500 to 5000	
C=CC(=O)N[C@@H]1CN(c2nc(Nc3cn(CCOCCOCCOCCOCCOc4ccc(CNc5cc(N6CCCC[C@H]6CCO)nc6c(CC)cnn56)cn4)nc3OC)c3ncn(C)c3n2)C[C@H]1F [Compound I-145, N-[(3R,4R)-1-[6-[[1-[2-[2-[2-[2-[2-[[5-[[[3-ethyl-5-[(2S)-2-(2-hydroxyethyl)-1-piperidyl]pyrazolo[1,5-a]pyrimidin-7-yl]amino]methyl]-2-pyridyl]oxy]ethoxy]ethoxy]ethoxy]ethoxy]ethyl]-3-methoxy-pyrazol-4-yl]amino]-9-methyl-purin-2-yl]-4-fluoro-pyrrolidin-3-yl]prop-2-enamide]				< 500	< 500
C=CC(=O)N[C@@H]1CN(c2nc(Nc3cn(CCCN4CCN(CCCOc5ccc(CNc6cc(N7CCCC[C@H]7CCO)nc7c(CC)cnn67)cn5)CC4)nc3OC)c3ncn(C)c3n2)C[C@H]1F [Compound I-147, N-[(3R,4R)-1-[6-[[1-[3-[4-[3-[[5-[[[3-ethyl-5-[(2S)-2-(2-hydroxyethyl)-1-piperidyl]pyrazolo[1,5-a]pyrimidin-7-yl]amino]methyl]-2-pyridyl]oxy]propyl]piperazin-1-yl]propyl]-3-methoxy-pyrazol-4-yl]amino]-9-methyl-purin-2-yl]-4-fluoro-pyrrolidin-3-yl]prop-2-enamide]				< 500	500 to 1500
C=CC(=O)N[C@@H]1CN(c2nc(Nc3cn(CCCCCCCCNS(=O)(=O)c4ccc(Nc5ncc(Br)c(Nc6cccc(F)c6C(N)=O)n5)cc4)nc3OC)c3ncn(C)c3n2)C[C@H]1F [Compound I-148, 2-[[5-bromo-2-[4-[8-[4-[[2-[(3R,4R)-3-fluoro-4-(prop-2-enoylamino)pyrrolidin-1-yl]-9-methyl-purin-6-yl]amino]-3-methoxy-pyrazol-1-yl]octylsulfamoyl]anilino]pyrimidin-4-yl]amino]-6-fluoro-benzamide]				< 500	< 500
CC[C@@H]1C(=O)N(C)c2cnc(Nc3ccc(C(=O)NCCCN4CCN(CCCN(C)C/C=C/C(=O)Nc5cc(Nc6nccc(-c7cn(C)c8ccccc78)n6)c(OC)cc5N(C)CCN(C)C)CC4)cc3OC)nc2N1C1CCCC1 [Compound I-151, 4-[[(7R)-8-cyclopentyl-7-ethyl-5-methyl-6-oxo-7H-pteridin-2-yl]amino]-N-[3-[4-[3-[[(E)-4-[2-[2-(dimethylamino)ethyl-methyl-amino]-4-methoxy-5-[[4-(1-methylindol-3-yl)pyrimidin-2-yl]amino]anilino]-4-oxo-but-2-enyl]-methyl-amino]propyl]piperazin-1-yl]propyl]-3-methoxy-benzamide]				500 to 1500	< 500
